What was measured:
[1] = Relative solubility by turbidity in aqueous buffers (pH 1.5, 4.5, 6.8, 7.4); format: physicochemical; conditions: for turbidity threshold (L, M, H) 1.4: pH 1.5 (SGF); for turbidity threshold (L, M, H) 4.5: pH 4.5 (SIF); for turbidity threshold (L, M, H) 6.8: pH 6.8 (SIF); for turbidity threshold (L, M, H) 7.4: pH 7.4 (HEPES)
Method in brief: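 Reported value: concentration at which optical density at 490, 535 and 650 nm passes 0.01, taken as the mean of the three wavelengths. Buffers were 0.5M NaCl pH 1.5, 0.05M NaH2PO4 pH 4.5 or 6.8, and 10 mM HEPES/150 mM NaCl pH 7.4, each receiving serial 1:1 DMSO dilutions of a 25 mM stock.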

MV-4-11 cells = assay: MV-4-11 (leukemia) cell proliferation assay (ATPlite); format: cell-based; conditions: Homo sapiens, MV4-11, read-out: Inhibition of Cell Proliferation IC50, MV-4-11
Experimental: Compounds are assessed in a variety of cell based assays. For example BaF3 cells engineered with any of BCR-FMS, BCR-KIT, BCR-FLT3, BCR-NTRK1, BCR-NTRK2, and BCR-NTRK3, are used in cell proliferation assays to assess inhibitory activity of Fms, Kit, Flt-3, TrkA, TrkB, and TrkC, respectively. An MV-4-11 (leukemia) cell proliferation assay is used to assess inhibitory activity in Flt-3, and SKNSH (human neuroblastoma) cell proliferation assay is used to assess efficacy of Fms/Trk inhibitors. Additional cells may be assayed similarly to assess the efficacy of Fms/Trk inhibitors, such as MiaPaCa (human pancreatic cancer) and Capan-1 (human pancreatic carcinoma) cells. Reagent and assay conditions are as follows: • BaF3 cells: • Maintained in RPMI containing 10% FBS, 1% PenStrep, 1% NEAA, and 1% L-Glutamine, supplemented with 1 mg/mL G418 and 5% WEHI-CM (or recombinant murine IL-3). • Confluent cells are split 1:50 to 1:100 every 3-4 days. • MV-4-11 cells: • Maintained in Iscove's Modified Dulbecco's Medium containing 10% FBS. • Confluent cells are split 1:4 every 3-4 days. • SKNSH cells: RPMI containing 10% FBS. On day 1, cells are counted, then centrifuged in a conical tube for 5 minutes at 1000 rpm. The supernatant is removed and cells are re-suspended as follows: • BaF3: resuspend in growth media +1 mg/mL G418 (without WEHFIL-3) to 2×10^5 cells/mL. • MV-4-11: resuspend in growth media to 5×10^5 cells/mL. • SKNSH: resuspend in growth media to 2×10^4 cells/mL. The cells are plated (50 μL, 150 μL for SKNSH cells) in each well of a 96-well dish (Corning 3610) and incubated at 37° C. in 5% CO2 overnight, cells plated to a final concentration of cells as follows: • BaF3: 10,000 cells per well. • MV-4-11: 25,000 cells per well. • SKNSH: 3,000 cells per well. On day 2, compound at a maximum concentration of 5 mM is serially diluted 1:3 for a total of 8 point titration with DMSO as a control. A 1 μL aliquot of each dilution point is added to 249 μL growth media and 50 μL is added to a well containing cells, providing 10 μM compound for the maximum concentration point. The cells are incubated for 3 days at 37° C. in 5% CO2. For SKNSH cells, a 0.75 μL aliquot of appropriate dilution in DMSO is added to 150 μL of cells. On day 5, ATPlite 1 step Luminescence Assay System (Perkin Elmer #6016739) is brought to room temperature along with the cell cultures. ATPlite is added to each well as follows: • BaF3: 25 μL per well. • MV-4-11: 40 μL per well. • SKNSH: 20 μL per well. The cells are incubated at room temperature for 10 minutes, then luminescence is read on Safire reader. The measured luminescence correlates directly with cell number, such that the reading as a function of compound concentration is used to determine the IC50 value.
It is understood that the results of these assays may vary as assay conditions are varied. Inhibition levels determined under the conditions described herein represent a relative activity for the compounds tested under the specific conditions employed. The cell based assays are likely to show variability due to the complexity of the system and the sensitivity thereof to any changes in the assay conditions. […] Results for compounds that are tested and show substantially no inhibition below the highest tested concentration are represented as “-” in the tables below. In some instances, the compounds were not tested in all of the assays, or assay results were not valid, as indicated by NA in the tables below.

SMILES	turbidity threshold (L, M, H) 1.4 [1]	turbidity threshold (L, M, H) 4.5 [1]	turbidity threshold (L, M, H) 6.8 [1]	turbidity threshold (L, M, H) 7.4 [1]	IC50 (MV-4-11 cells) [nM]
COc1ccc(Nc2ccc(Cc3c[nH]c4ncnc(OC)c34)c(F)n2)cn1 [Compound P-4001, [6-Fluoro-5-(4-methoxy-7H-pyrrolo[2,3-d]pyrimidin-5-ylmethyl)-pyridin-2-yl]-(6-methoxy-pyridin-3-yl)-amine]	M (moderate solubility if the threshold concentration is 31.3 μM to 250 μM)	M (moderate solubility if the threshold concentration is 31.3 μM to 250 μM)	M (moderate solubility if the threshold concentration is 31.3 μM to 250 μM)	M (moderate solubility if the threshold concentration is 31.3 μM to 250 μM)	< 1000
COc1ncnc2[nH]cc(Cc3ccc(Nc4ccc(Cl)nc4)nc3F)c12 [Compound P-4003, (6-Chloro-pyridin-3-yl)-[6-fluoro-5-(4-methoxy-7H-pyrrolo[2,3-d]pyrimidin-5-ylmethyl)-pyridin-2-yl]-amine]	M (moderate solubility if the threshold concentration is 31.3 μM to 250 μM)	M (moderate solubility if the threshold concentration is 31.3 μM to 250 μM)	M (moderate solubility if the threshold concentration is 31.3 μM to 250 μM)	M (moderate solubility if the threshold concentration is 31.3 μM to 250 μM)	< 1000
COc1ncnc2[nH]cc(Cc3ccc(Nc4ccc(C5CC5)nc4)nc3F)c12 [Compound P-4004, (6-Cyclopropyl-pyridin-3-yl)-[6-fluoro-5-(4-methoxy-7H-pyrrolo[2,3-d]pyrimidin-5-ylmethyl)-pyridin-2-yl]-amine]	M (moderate solubility if the threshold concentration is 31.3 μM to 250 μM)	M (moderate solubility if the threshold concentration is 31.3 μM to 250 μM)	L (low solubility if the threshold concentration is <31.3 μM)	L (low solubility if the threshold concentration is <31.3 μM)	< 1000
CCOc1ccc(Nc2ccc(Cc3c[nH]c4ncnc(OC)c34)c(F)n2)cn1 [Compound P-4005, (6-Ethoxy-pyridin-3-yl)-[6-fluoro-5-(4-methoxy-7H-pyrrolo[2,3-d]pyrimidin-5-ylmethyl)-pyridin-2-yl]-amine]	M (moderate solubility if the threshold concentration is 31.3 μM to 250 μM)	L (low solubility if the threshold concentration is <31.3 μM)	L (low solubility if the threshold concentration is <31.3 μM)	L (low solubility if the threshold concentration is <31.3 μM)	< 1000
CCOc1ccc(Nc2ccc(Cc3c[nH]c4ncnc(C)c34)c(F)n2)cn1 [Compound P-4006, (6-Ethoxy-pyridin-3-yl)-[6-fluoro-5-(4-methyl-7H-pyrrolo[2,3-d]pyrimidin-5-ylmethyl)-pyridin-2-yl]-amine]	H (high solubility if the threshold concentration is >250 μm)	L (low solubility if the threshold concentration is <31.3 μM)	L (low solubility if the threshold concentration is <31.3 μM)	L (low solubility if the threshold concentration is <31.3 μM)	< 100
CCc1ccc(Nc2ccc(Cc3c[nH]c4ncnc(OC)c34)c(F)n2)cn1 [Compound P-4007, (6-Ethyl-pyridin-3-yl)-[6-fluoro-5-(4-methoxy-7H-pyrrolo[2,3-d]pyrimidin-5-ylmethyl)-pyridin-2-yl]-amine]	M (moderate solubility if the threshold concentration is 31.3 μM to 250 μM)	L (low solubility if the threshold concentration is <31.3 μM)	L (low solubility if the threshold concentration is <31.3 μM)	L (low solubility if the threshold concentration is <31.3 μM)	< 1000
CCOc1ccc(Nc2ccc(Cc3c[nH]c4ncnc(OCCOC)c34)c(F)n2)cn1 [Compound P-4008, (6-Ethoxy-pyridin-3-yl)-{6-fluoro-5-[4-(2-methoxy-ethoxy)-7H-pyrrolo[2,3-d]pyrimidin-5-ylmethyl]-pyridin-2-yl}-amine]	M (moderate solubility if the threshold concentration is 31.3 μM to 250 μM)	M (moderate solubility if the threshold concentration is 31.3 μM to 250 μM)	M (moderate solubility if the threshold concentration is 31.3 μM to 250 μM)	M (moderate solubility if the threshold concentration is 31.3 μM to 250 μM)	< 100
CCc1ccc(Nc2ccc(Cc3c[nH]c4ncnc(C)c34)c(F)n2)cn1 [Compound P-4009, (6-Ethyl-pyridin-3-yl)-[6-fluoro-5-(4-methyl-7H-pyrrolo[2,3-d]pyrimidin-5-ylmethyl)-pyridin-2-yl]-amine]	H (high solubility if the threshold concentration is >250 μm)	M (moderate solubility if the threshold concentration is 31.3 μM to 250 μM)	L (low solubility if the threshold concentration is <31.3 μM)	L (low solubility if the threshold concentration is <31.3 μM)	< 100
COc1ncnc2[nH]cc(Cc3ccc(Nc4ccc(C)nc4)nc3F)c12 [Compound P-4010, [6-Fluoro-5-(4-methoxy-7H-pyrrolo[2,3-d]pyrimidin-5-ylmethyl)-pyridin-2-yl]-(6-methyl-pyridin-3-yl)-amine]	H (high solubility if the threshold concentration is >250 μm)	M (moderate solubility if the threshold concentration is 31.3 μM to 250 μM)	L (low solubility if the threshold concentration is <31.3 μM)	L (low solubility if the threshold concentration is <31.3 μM)	< 1000
CCn1cc(Nc2ccc(Cc3c[nH]c4ncnc(OC)c34)c(F)n2)cn1 [Compound P-4011, (1-Ethyl-1H-pyrazol-4-yl)-[6-fluoro-5-(4-methoxy-7H-pyrrolo[2,3-d]pyrimidin-5-ylmethyl)-pyridin-2-yl]-amine]	M (moderate solubility if the threshold concentration is 31.3 μM to 250 μM)	M (moderate solubility if the threshold concentration is 31.3 μM to 250 μM)	M (moderate solubility if the threshold concentration is 31.3 μM to 250 μM)	M (moderate solubility if the threshold concentration is 31.3 μM to 250 μM)	< 1000
CCOc1ncnc2[nH]cc(Cc3ccc(Nc4cnn(CC)c4)nc3F)c12 [Compound P-4012, [5-(4-Ethoxy-7H-pyrrolo[2,3-d]pyrimidin-5-ylmethyl)-6-fluoro-pyridin-2-yl]-(1-ethyl-1H-pyrazol-4-yl)-amine]	M (moderate solubility if the threshold concentration is 31.3 μM to 250 μM)	L (low solubility if the threshold concentration is <31.3 μM)	L (low solubility if the threshold concentration is <31.3 μM)	L (low solubility if the threshold concentration is <31.3 μM)	< 1000

— patent US8901118B2, “Compounds and methods for kinase modulation, and indications therefor” (Plexxikon Inc., priority 2010, dated 2014)
